Data taken from patent US20250122160A1, “PROTEIN TYROSINE PHOSPHATASE INHIBITORS AND METHODS OF USE THEREOF” (Calico Life Sciences LLC, priority 0001, published 2025).

Experiments:
[1] = molecular target: T1, His tagged PTPN2 (TC45) protein (Homo sapiens, UniProt P17706); test: Mobility shift assay (MSA) to determine potency of PTPN2 inhibitors; assay type: biochemical; conditions: 0.5 nM enzyme, 2 μM substrate
T1 construct: made in house
T1 sequence (P17706 with tags, fused parts or gaps isoform P17706-2): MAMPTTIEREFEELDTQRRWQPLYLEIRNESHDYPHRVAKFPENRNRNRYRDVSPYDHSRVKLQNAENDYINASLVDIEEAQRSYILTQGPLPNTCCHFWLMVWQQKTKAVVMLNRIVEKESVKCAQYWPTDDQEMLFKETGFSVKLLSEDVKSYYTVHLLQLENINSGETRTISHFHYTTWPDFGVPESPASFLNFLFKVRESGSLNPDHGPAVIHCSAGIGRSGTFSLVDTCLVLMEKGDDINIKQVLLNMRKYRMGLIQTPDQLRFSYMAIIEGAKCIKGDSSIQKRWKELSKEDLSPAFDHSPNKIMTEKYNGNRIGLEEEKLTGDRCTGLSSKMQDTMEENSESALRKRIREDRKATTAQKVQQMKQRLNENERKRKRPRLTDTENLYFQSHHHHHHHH
Summary of the method: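 His-tagged human PTPN2 (TC45), 0.5 nM, preincubated 10 min at room temperature with compound (12-point, 1:3 dilutions) in HEPES pH 7.5 buffer with EGTA, EDTA, Tween 20 and DTT. Then 2 μM OG488-labelled phospho-insulin-receptor peptide was added for 10 min and quenched. % conversion was read by mobility shift, and IC50 came from % inhibition.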

[2] = molecular target: T2, His tagged full-length PTPN1 protein (Homo sapiens, UniProt P18031); test: Mobility shift assay (MSA) to determine potency of PTPN1 inhibitors; assay type: biochemical; conditions: 0.5 nM enzyme, 2 μM substrate
T2 construct: made in house
T2 sequence (P18031 with tags, fused parts or gaps): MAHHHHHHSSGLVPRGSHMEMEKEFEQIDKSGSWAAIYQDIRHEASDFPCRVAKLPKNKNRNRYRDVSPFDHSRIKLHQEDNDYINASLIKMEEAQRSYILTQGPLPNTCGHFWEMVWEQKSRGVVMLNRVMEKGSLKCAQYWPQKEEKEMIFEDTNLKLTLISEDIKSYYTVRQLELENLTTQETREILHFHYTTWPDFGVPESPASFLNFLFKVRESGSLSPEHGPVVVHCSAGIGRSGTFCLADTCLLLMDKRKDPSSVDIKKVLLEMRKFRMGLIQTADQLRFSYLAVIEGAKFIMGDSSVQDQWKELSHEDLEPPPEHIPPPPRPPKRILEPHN
Summary of the method: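 Readout is microfluidic mobility shift (ex 488/em 530 nm) of a 2 μM OG488-labelled pTyr insulin-receptor peptide after a 10 min room-temperature reaction, following 10 min enzyme–compound preincubation. Enzyme: 0.5 nM full-length His-tagged PTPN1 in HEPES pH 7.5 buffer. IC50 fitted from % inhibition at 12 concentrations (1:3 steps).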

Row | IC50 [2] [nM] | Structure (SMILES) | IC50 [1] [nM]
1 | 10 to 100 | CCCCNCC1CCc2cc(O)c(N3CC(=O)NS3(=O)=O)c(F)c2C1 (stereo not shown) [Compound 396, 5-{7-[(butylamino)methyl]-1-fluoro-3-hydroxy-5,6,7,8-tetrahydronaphthalen-2-yl}-1λ^6,2,5-thiadiazolidine-1,1,3-trione] | 10 to 100
2 | > 100 | C[C@@H]1C[C@@H](N)Cc2c1cc(O)c(N1CC(=O)NS1(=O)=O)c2F [Compound 397, 5-[(5R,7R)-7-amino-1-fluoro-3-hydroxy-5-methyl-5,6,7,8-tetrahydronaphthalen-2-yl]-1λ^6,2,5-thiadiazolidine-1,1,3-trione] | > 100
3 | 10 to 100 | C[C@H]1C[C@@H](N)Cc2c1cc(O)c(N1CC(=O)NS1(=O)=O)c2F [Compound 398, 5-[(5S,7R)-7-amino-1-fluoro-3-hydroxy-5-methyl-5,6,7,8-tetrahydronaphthalen-2-yl]-1λ^6,2,5-thiadiazolidine-1,1,3-trione] | 10 to 100
4 | 10 to 100 | O=C1CN(c2c(O)cc3c(c2F)CC(CNCC2CC2)CC3)S(=O)(=O)N1 (stereo not shown) [Compound 399, 5-(7-{[(cyclopropylmethyl)amino]methyl}-1-fluoro-3-hydroxy-5,6,7,8-tetrahydronaphthalen-2-yl)-1λ^6,2,5-thiadiazolidine-1,1,3-trione] | 10 to 100
5 | 10 to 100 | O=C1CN(c2c(O)cc3c(c2F)CC(CNCC2CCC2)CC3)S(=O)(=O)N1 (stereo not shown) [Compound 400, 5-(7-{[(cyclobutylmethyl)amino]methyl}-1-fluoro-3-hydroxy-5,6,7,8-tetrahydronaphthalen-2-yl)-1λ^6,2,5-thiadiazolidine-1,1,3-trione] | 10 to 100
6 | > 100 | N[C@@H]1CCc2cc(O)c(N3CC(=O)NS3(=O)=O)c(F)c2[C@H]1O [Compound 401, 5-[(7R,8R)-7-amino-1-fluoro-3,8-dihydroxy-5,6,7,8-tetrahydronaphthalen-2-yl]-1λ^6,2,5-thiadiazolidine-1,1,3-trione] | > 100
7 | > 100 | CC(=O)N[C@@H]1CCc2cc(O)c(N3CC(=O)NS3(=O)=O)c(F)c2C1 [Compound 402, N-[(2R)-8-fluoro-6-hydroxy-7-(1,1,4-trioxo-1λ^6,2,5-thiadiazolidin-2-yl)-1,2,3,4-tetrahydronaphthalen-2-yl]acetamide] | > 100
8 | 10 to 100 | O=C1CN(c2c(O)cc3c(c2F)CC(CNCCO)CC3)S(=O)(=O)N1 (stereo not shown) [Compound 403, 5-(1-fluoro-3-hydroxy-7-{[(2-hydroxyethyl)amino]methyl}-5,6,7,8-tetrahydronaphthalen-2-yl)-1λ^6,2,5-thiadiazolidine-1,1,3-trione] | 10 to 100
9 | 10 to 100 | NC[C@H]1CCc2cc(O)c(N3CC(=O)NS3(=O)=O)c(F)c2C1 [Compound 404, 5-[(7S)-7-(aminomethyl)-1-fluoro-3-hydroxy-5,6,7,8-tetrahydronaphthalen-2-yl]-1λ^6,2,5-thiadiazolidine-1,1,3-trione] | 10 to 100
10 | 10 to 100 | NC[C@@H]1CCc2cc(O)c(N3CC(=O)NS3(=O)=O)c(F)c2C1 [Compound 405, 5-[(7R)-7-(aminomethyl)-1-fluoro-3-hydroxy-5,6,7,8-tetrahydronaphthalen-2-yl]-1λ^6,2,5-thiadiazolidine-1,1,3-trione] | 10 to 100
11 | > 100 | CC(C)CCN[C@@H]1CCc2cc(O)c(N3CC(=O)NS3(=O)=O)c(F)c2[C@H]1O [Compound 406, 5-{(7R,8R)-1-fluoro-3,8-dihydroxy-7-[(3-methylbutyl)amino]-5,6,7,8-tetrahydronaphthalen-2-yl}-1λ^6,2,5-thiadiazolidine-1,1,3-trione] | 10 to 100
12 | 1 to 10 | NCC(F)(F)CCCN[C@@H]1CCc2cc(O)c(N3CC(=O)NS3(=O)=O)c(F)c2C1 [Compound 409, 5-{(7R)-7-[(5-amino-4,4-difluoropentyl)amino]-1-fluoro-3-hydroxy-5,6,7,8-tetrahydronaphthalen-2-yl}-1λ^6,2,5-thiadiazolidine-1,1,3-trione] | 1 to 10
13 | 1 to 10 | CCCCN[C@@H]1CCc2cc(O)c(N3CC(=O)NS3(=O)=O)c(F)c2C1 [Compound 410, 5-[(7R)-7-(butylamino)-1-fluoro-3-hydroxy-5,6,7,8-tetrahydronaphthalen-2-yl]-1λ^6,2,5-thiadiazolidine-1,1,3-trione] | 1 to 10
14 | 1 to 10 | CC(C)CCN[C@H]1Cc2c(cc(O)c(N3CC(=O)NS3(=O)=O)c2F)C[C@@H]1O [Compound 411, 5-{(6S,7S)-1-fluoro-3,6-dihydroxy-7-[(3-methylbutyl)amino]-5,6,7,8-tetrahydronaphthalen-2-yl}-1λ^6,2,5-thiadiazolidine-1,1,3-trione] | < 1
